The values that follow come from ChEMBL document CHEMBL1137590, “(3R)-4-[(3R)-3-Amino-4-(2,4,5-trifluorophenyl)butanoyl]-3-(2,2,2-trifluoroethyl)-1,4-diazepan-2-one, a selective dipeptidyl peptidase IV inhibitor for the treatment of type 2 diabetes” (Bioorg Med Chem Lett, 2007).

The target of one data set is Dipeptidyl peptidase 2 (Homo sapiens, UniProt Q9UHL4). Put plainly: In vitro inhibition of QPP dipeptidylpeptidase II.
A short description of data set [1]: Oral bioavailability in rats. The format is ADME, organism-based. To be noted: rat, in vivo.
Another data set is filed under the species Canis familiaris. Put plainly: Dose-normalized area under plasma concentration vs time curve in dogs. To be noted: dog, in vivo. The format is ADME, organism-based, Canis lupus familiaris.
Data set [2] in a line: Half-life in rats. It is filed as ADME, organism-based. To be noted: rat, in vivo.
The nature of data set [3]: Oral bioavailability in dogs. It is filed as ADME, organism-based, Canis lupus familiaris. To be noted: dog, in vivo.
A further data set is filed under the species Rattus norvegicus. Kind of data set: Dose-normalized area under plasma concentration vs time curve in rats. The format is ADME, organism-based. To be noted: in vivo.
The nature of data set [4]: Plasma clearance in dogs. Conditions: dog, read-out: Clp. It is filed as ADME, organism-based, Canis lupus familiaris.
The nature of data set [5]: Half-life in dogs. It is filed as ADME, organism-based, Canis lupus familiaris. Conditions: dog, in vivo.
Data set [6] in a line: Plasma clearance in rats. It is filed as ADME, organism-based. Conditions: rat, read-out: Clp.

On to `N[C@@H](CC(=O)N1CCCNC(=O)C1)Cc1cc(F)c(F)cc1F`, for which the IC50 (usually the concentration that inhibits the measured activity by half) against Dipeptidyl peptidase 2 is > 100 µM.
Regarding `N[C@@H](CC(=O)N1CCCNC(=O)[C@H]1CC(F)(F)F)Cc1cc(F)c(F)cc1F`, the bioavailability (as a rule, dose-corrected exposure relative to a reference, in per cent) in data set [1] amounted to 36%; in [3], 95%. Further, the AUC in the data set listed under Canis familiaris is given as 2.2 uM h/(mg/kg); in the data set listed under Rattus norvegicus, 0.2 uM h/(mg/kg). In addition, the half-life – broadly, the time needed for the level to fall by half in the phase considered – in data set [2] was 2 h; in [5], 9 h. Further, the figures for the clearance in [4] and in data set [6] were 1.08 L/h/kg and 5.64 L/h/kg, respectively.
As to `C[C@@H]1C(=O)NCCCN1C(=O)C[C@H](N)Cc1cc(F)c(F)cc1F`, the bioavailability was 26% in data set [1] and 100% in [3]. For the same compound, the AUC in the data set listed under Canis familiaris is given as 8.5 uM h/(mg/kg); in the data set filed under Rattus norvegicus it was 0.15 uM h/(mg/kg). Further, the half-life was 1 h in [2] and 4.3 h in data set [5]. The clearance stood at 0.54 L/h/kg in [4] and 5.28 L/h/kg in [6].
